US9949475B2, “Composition comprising active ingredient, oil and ionic liquid” (priority 2011, dated 2018)
Values after ≈ are worked out from the molar mass of the structure shown. Read-outs that look alike come from different tables or passages of the source. Each block holds one molecule with its values, some of them ahead of it.

Test: Solubility of UV absorber in oil comprising ionic liquid
Format: physicochemical
Conditions: for solubility: 21 °C, thermodynamic from solid, read-out: Solubility of Tinosorb ® S with Cetiol ® B as oil; for Solubility of Uvinul ® T150 with Cetiol ® B as oil: 21° C.
Procedure: For this, increasing amounts of active ingredient were added stepwise to oil (Cetiol® B or Solvesso®), which comprised the ionic liquid, until the maximum solubility was reached. Alternatively, the oil, which comprised the ionic liquid, was saturated with the active ingredient and the soluble fraction of active ingredient was quantified by means of HPLC.

- solubility (neat ionic liquid (no oil), organic solvent or mixture, 100 IL (no oil), IL N-butyl-N′-methylimidazolium acetate): 1 mg/mL (≈ 1590 µM)
- solubility (neat ionic liquid (no oil), organic solvent or mixture, 100 IL (no oil), IL N-ethyl-N′-ethylimidazolium heptanoate): 1 mg/mL (≈ 1590 µM)
- solubility (neat ionic liquid (no oil), organic solvent or mixture, 100 IL (no oil), IL N-ethyl-N′-ethylimidazolium octanoate): 1 mg/mL (≈ 1590 µM)
- solubility (neat ionic liquid (no oil), organic solvent or mixture, 100 IL (no oil), IL N-ethyl-N′-methylimidazolium isononanoate): 9.5 mg/mL (≈ 15100 µM)
- solubility (neat oil (no ionic liquid), oil or lipid, 100 Oil (Cetiol B, no IL)): 6.2 mg/mL (≈ 9880 µM)
- solubility (oil/ionic liquid mixture, oil or lipid, Oil/IL 20/80 weight ratio, IL N-butyl-N′-methylimidazolium acetate): 12.4 mg/mL
- solubility (oil/ionic liquid mixture, oil or lipid, Oil/IL 20/80 weight ratio, IL N-ethyl-N′-ethylimidazolium octanoate): 16.7 mg/mL
- solubility (oil/ionic liquid mixture, oil or lipid, Oil/IL 20/80 weight ratio, IL N-ethyl-N′-methylimidazolium isononanoate): 19.2 mg/mL
- solubility (oil/ionic liquid mixture, oil or lipid, Oil/IL 60/40 weight ratio, IL N-butyl-N′-methylimidazolium acetate): 14.3 mg/mL
- solubility (oil/ionic liquid mixture, oil or lipid, Oil/IL 60/40 weight ratio, IL N-ethyl-N′-ethylimidazolium heptanoate): 21.9 mg/mL
- solubility (oil/ionic liquid mixture, oil or lipid, Oil/IL 60/40 weight ratio, IL N-ethyl-N′-ethylimidazolium octanoate): 21.9 mg/mL
- solubility (oil/ionic liquid mixture, oil or lipid, Oil/IL 60/40 weight ratio, IL N-ethyl-N′-methylimidazolium isononanoate): 22.4 mg/mL
- solubility (oil/ionic liquid mixture, oil or lipid, Oil/IL 90/10 weight ratio, IL N-butyl-N′-methylimidazolium acetate): 11.7 mg/mL
- solubility (oil/ionic liquid mixture, oil or lipid, Oil/IL 90/10 weight ratio, IL N-ethyl-N′-ethylimidazolium heptanoate): 13 mg/mL
- solubility (oil/ionic liquid mixture, oil or lipid, Oil/IL 90/10 weight ratio, IL N-ethyl-N′-ethylimidazolium octanoate): 13 mg/mL
- solubility (oil/ionic liquid mixture, oil or lipid, Oil/IL 90/10 weight ratio, IL N-ethyl-N′-methylimidazolium isononanoate): 13.8 mg/mL
Structure (SMILES): CCCCC(CC)COc1ccc(-c2nc(-c3ccc(OC)cc3)nc(-c3ccc(OCC(CC)CCCC)cc3O)n2)c(O)c1 (centres unmarked) [Tinosorb ® S, bis-ethylhexyloxyphenol methoxyphenyl triazine]

- Solubility of Uvinul ® T150 with Cetiol ® B as oil (100 IL (no oil), IL Cholinium [2-(2-methoxyethoxy)ethoxy]acetate): 1 mg/mL
- Solubility of Uvinul ® T150 with Cetiol ® B as oil (100 IL (no oil), IL N-butyl-N′-methylimidazolium acetate): 5 mg/mL
- Solubility of Uvinul ® T150 with Cetiol ® B as oil (100 IL (no oil), IL N-ethyl-N′-ethylimidazolium propionate): 5 mg/mL
- Solubility of Uvinul ® T150 with Cetiol ® B as oil (100 IL (no oil), IL N-ethyl-N′-methylimidazolium acetate): 1 mg/mL
- Solubility of Uvinul ® T150 with Cetiol ® B as oil (100 IL (no oil), IL N-ethyl-N′-methylimidazolium isononanoate): 1 mg/mL
- Solubility of Uvinul ® T150 with Cetiol ® B as oil (100 Oil (Cetiol B, no IL)): 14.2 mg/mL
- Solubility of Uvinul ® T150 with Cetiol ® B as oil (Oil/IL 20/80 weight ratio, IL N-butyl-N′-methylimidazolium acetate): 41.5 mg/mL
- Solubility of Uvinul ® T150 with Cetiol ® B as oil (Oil/IL 20/80 weight ratio, IL N-ethyl-N′-ethylimidazolium propionate): 44.1 mg/mL
- Solubility of Uvinul ® T150 with Cetiol ® B as oil (Oil/IL 20/80 weight ratio, IL N-ethyl-N′-methylimidazolium acetate): 40.8 mg/mL
- Solubility of Uvinul ® T150 with Cetiol ® B as oil (Oil/IL 20/80 weight ratio, IL N-ethyl-N′-methylimidazolium isononanoate): 34.8 mg/mL
- Solubility of Uvinul ® T150 with Cetiol ® B as oil (Oil/IL 60/40 weight ratio, IL N-butyl-N′-methylimidazolium acetate): 54.1 mg/mL
- Solubility of Uvinul ® T150 with Cetiol ® B as oil (Oil/IL 60/40 weight ratio, IL N-ethyl-N′-ethylimidazolium propionate): 54.3 mg/mL
- Solubility of Uvinul ® T150 with Cetiol ® B as oil (Oil/IL 60/40 weight ratio, IL N-ethyl-N′-methylimidazolium acetate): 52.8 mg/mL
- Solubility of Uvinul ® T150 with Cetiol ® B as oil (Oil/IL 60/40 weight ratio, IL N-ethyl-N′-methylimidazolium isononanoate): 45.7 mg/mL
- Solubility of Uvinul ® T150 with Cetiol ® B as oil (Oil/IL 90/10 weight ratio, IL Cholinium [2-(2-methoxyethoxy)ethoxy]acetate): 21.3 mg/mL
- Solubility of Uvinul ® T150 with Cetiol ® B as oil (Oil/IL 90/10 weight ratio, IL N-butyl-N′-methylimidazolium acetate): 37.5 mg/mL
- Solubility of Uvinul ® T150 with Cetiol ® B as oil (Oil/IL 90/10 weight ratio, IL N-ethyl-N′-ethylimidazolium propionate): 33.3 mg/mL
- Solubility of Uvinul ® T150 with Cetiol ® B as oil (Oil/IL 90/10 weight ratio, IL N-ethyl-N′-methylimidazolium acetate): 37.5 mg/mL
- Solubility of Uvinul ® T150 with Cetiol ® B as oil (Oil/IL 90/10 weight ratio, IL N-ethyl-N′-methylimidazolium isononanoate): 32.4 mg/mL
Structure (SMILES): CCCCC(CC)COC(=O)c1ccc(Nc2nc(Nc3ccc(C(=O)OCC(CC)CCCC)cc3)nc(Nc3ccc(C(=O)OCC(CC)CCCC)cc3)n2)cc1 (centres unmarked) [Uvinul ® T150, 2,4,6-trianilino-p-(carbo-2′-ethylhexyl-1′-oxy)-1,3,5-triazine]
